Measurements: PubChem BioAssay (NCI)
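Five concentrations, 48 hours, 96-well plates. TGI denotes the concentration required for complete inhibition of growth.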

Key:
Assay in all cases: growth of human tumour cells (NCI), 48 h
[1] = system: 786-0 renal
[2] = system: A498 renal
[3] = system: ACHN renal
[4] = system: BT-549 breast
[5] = system: CAKI-1 renal
[6] = system: COLO 205 colon
[7] = system: EKVX NSCLC
[8] = system: HCC-2998 colon
[9] = system: HCT-116 colon
[10] = system: HCT-15 colon
[11] = system: HL-60(TB) leukemia
[12] = system: HOP-62 NSCLC
[13] = system: HS 578T breast
[14] = system: HT29 colon
[15] = system: IGROV1 ovarian
[16] = system: K-562 leukemia
[17] = system: KM12 colon
[18] = system: LOX IMVI melanoma
[19] = system: MALME-3M melanoma
[20] = system: MCF7 breast
[21] = system: MDA-MB-231 breast
[22] = system: MDA-MB-435
[23] = system: MDA-N
[24] = system: MOLT-4 leukemia
[25] = system: NCI-H226 lung
[26] = system: NCI-H23 lung
[27] = system: NCI-H460 lung
[28] = system: NCI-H522 lung
[29] = system: NCI/ADR-RES ovarian
[30] = system: OVCAR-3 ovarian
[31] = system: OVCAR-4 ovarian
[32] = system: OVCAR-5 ovarian
[33] = system: OVCAR-8 ovarian
[34] = system: PC-3 prostate
[35] = system: RPMI-8226 leukemia
[36] = system: RXF 393 renal
[37] = system: SF-268 CNS
[38] = system: SF-295 CNS
[39] = system: SF-539 CNS
[40] = system: SK-MEL-2 melanoma
[41] = system: SK-MEL-28 melanoma
[42] = system: SK-MEL-5 melanoma
[43] = system: SN12C renal
[44] = system: SNB-19 CNS
[45] = system: SNB-75 CNS
[46] = system: SR leukemia
[47] = system: SW-620 colon
[48] = system: TK-10 renal
[49] = system: U251 CNS
[50] = system: UACC-257 melanoma
[51] = system: UACC-62 melanoma
[52] = system: UO-31 renal
[53] = system: A549 NSCLC
[54] = system: CCRF-CEM leukemia
[55] = system: DU-145 prostate
[56] = system: HOP-92 NSCLC
[57] = system: M14 melanoma
[58] = system: SK-OV-3 ovarian
[59] = system: T-47D breast

SMILES: C[C@]12CC[C@H](O)CC1=CC[C@@H]1[C@@H]2CC[C@]2(C)/C(=N/OCCN3CCCC3)CC[C@@H]12
- TGI [1]: 33.6 µM
- TGI [2]: 29.8 µM
- TGI [3]: 68.2 µM
- TGI [4]: 37.6 µM
- TGI [5]: 40.7 µM
- TGI [6]: 30.1 µM
- TGI [7]: 49.2 µM
- TGI [8]: 37.1 µM
- TGI [9]: 28.6 µM
- TGI [10]: 28.8 µM
- TGI [11]: 23 µM
- TGI [12]: 53.2 µM
- TGI [13]: 83.8 µM
- TGI [14]: 10.3 µM
- TGI [15]: 34.3 µM
- TGI [16]: 21.6 µM
- TGI [17]: 26.9 µM
- TGI [18]: 33.4 µM
- TGI [19]: 27.1 µM
- TGI [20]: 44.9 µM
- TGI [21]: 36.9 µM
- TGI [22]: 29.4 µM
- TGI [23]: 34.3 µM
- TGI [24]: 34.8 µM
- TGI [25]: 30 µM
- TGI [26]: 27.1 µM
- TGI [27]: 24.8 µM
- TGI [28]: 25.7 µM
- TGI [29]: 52.7 µM
- TGI [30]: 31.1 µM
- TGI [31]: 36 µM
- TGI [32]: 96.6 µM
- TGI [33]: 30.7 µM
- TGI [34]: 39.4 µM
- TGI [35]: 38.4 µM
- TGI [36]: 29.3 µM
- TGI [37]: > 100 µM
- TGI [38]: 40.6 µM
- TGI [39]: 28.1 µM
- TGI [40]: 45.1 µM
- TGI [41]: 30.6 µM
- TGI [42]: 28 µM
- TGI [43]: 93.6 µM
- TGI [44]: 72.1 µM
- TGI [45]: 45 µM
- TGI [46]: 35.5 µM
- TGI [47]: 31.1 µM
- TGI [48]: 63.6 µM
- TGI [49]: 36.2 µM
- TGI [50]: 27.7 µM
- TGI [51]: 30.1 µM
- TGI [52]: 35.3 µM

SMILES: O=c1[nH]nc(Cc2ccccc2)n1-n1cnnc1
- TGI [1]: > 100 µM
- TGI [53]: > 100 µM
- TGI [3]: > 100 µM
- TGI [4]: > 100 µM
- TGI [54]: > 100 µM
- TGI [6]: > 100 µM
- TGI [55]: > 100 µM
- TGI [7]: > 100 µM
- TGI [8]: > 100 µM
- TGI [9]: > 100 µM
- TGI [10]: > 100 µM
- TGI [12]: > 100 µM
- TGI [56]: > 100 µM
- TGI [14]: > 100 µM
- TGI [15]: > 100 µM
- TGI [16]: > 100 µM
- TGI [17]: > 100 µM
- TGI [18]: > 100 µM
- TGI [57]: > 100 µM
- TGI [20]: > 100 µM
- TGI [21]: > 100 µM
- TGI [22]: > 100 µM
- TGI [23]: > 100 µM
- TGI [24]: > 100 µM
- TGI [26]: > 100 µM
- TGI [28]: > 100 µM
- TGI [29]: > 100 µM
- TGI [30]: > 100 µM
- TGI [31]: > 100 µM
- TGI [32]: > 100 µM
- TGI [33]: > 100 µM
- TGI [34]: > 100 µM
- TGI [35]: > 100 µM
- TGI [36]: > 100 µM
- TGI [37]: > 100 µM
- TGI [38]: > 100 µM
- TGI [39]: > 100 µM
- TGI [40]: > 100 µM
- TGI [41]: > 100 µM
- TGI [42]: > 100 µM
- TGI [58]: > 100 µM
- TGI [43]: > 100 µM
- TGI [44]: > 100 µM
- TGI [45]: > 100 µM
- TGI [46]: > 100 µM
- TGI [47]: > 100 µM
- TGI [48]: > 100 µM
- TGI [49]: > 100 µM
- TGI [50]: > 100 µM
- TGI [51]: > 100 µM
- TGI [52]: > 100 µM

SMILES: CCc1c(C)c(C#N)c(=S)n(C2OC(CO)C(O)C(O)C2O)c1C (stereo not drawn)
- TGI [1]: > 100 µM
- TGI [2]: > 100 µM
- TGI [53]: > 100 µM
- TGI [3]: > 100 µM
- TGI [54]: > 100 µM
- TGI [6]: > 100 µM
- TGI [55]: > 100 µM
- TGI [7]: > 100 µM
- TGI [8]: > 100 µM
- TGI [9]: > 100 µM
- TGI [10]: > 100 µM
- TGI [11]: > 100 µM
- TGI [12]: > 100 µM
- TGI [56]: > 100 µM
- TGI [14]: > 100 µM
- TGI [15]: > 100 µM
- TGI [16]: > 100 µM
- TGI [17]: > 100 µM
- TGI [18]: > 100 µM
- TGI [57]: > 100 µM
- TGI [19]: > 100 µM
- TGI [20]: > 100 µM
- TGI [21]: > 100 µM
- TGI [22]: > 100 µM
- TGI [23]: > 100 µM
- TGI [24]: > 100 µM
- TGI [25]: > 100 µM
- TGI [26]: > 100 µM
- TGI [27]: > 100 µM
- TGI [28]: > 100 µM
- TGI [29]: > 100 µM
- TGI [30]: > 100 µM
- TGI [31]: > 100 µM
- TGI [32]: > 100 µM
- TGI [33]: > 100 µM
- TGI [34]: > 100 µM
- TGI [36]: > 100 µM
- TGI [37]: > 100 µM
- TGI [38]: > 100 µM
- TGI [39]: > 100 µM
- TGI [40]: > 100 µM
- TGI [41]: > 100 µM
- TGI [42]: > 100 µM
- TGI [58]: > 100 µM
- TGI [43]: > 100 µM
- TGI [44]: > 100 µM
- TGI [45]: > 100 µM
- TGI [46]: > 100 µM
- TGI [47]: > 100 µM
- TGI [59]: > 100 µM
- TGI [48]: > 100 µM
- TGI [49]: > 100 µM
- TGI [50]: > 100 µM
- TGI [51]: > 100 µM
- TGI [52]: > 100 µM
